Starred links: 1 amine or outer side, 2 acyl side, 3 side chain; linkers in the order of their positions; H or OH if unused. Non-standard residues stand in square brackets, D forms with d. Residues, ends and D or L forms follow the SMILES beside them. Groups on a side chain read outwards from the residue. X2 = N=C(N)NCCC[C@@H](C(=O)[*:2])N(CCCCCC(=O)[C@H](CC(=O)O)N[*:3])[*:1]; pGlu = O=C1CC[C@@H](C(=O)O)N1
Experiments:
Orexin receptor type 2 = target: T1, Orexin receptor type 2 (Homo sapiens, UniProt O43614); test: Effective agonist concentration to the human Orexin receptor type 2 was determined using the Xlfit program; format: functional
T1 sequence (O43614 whole entry): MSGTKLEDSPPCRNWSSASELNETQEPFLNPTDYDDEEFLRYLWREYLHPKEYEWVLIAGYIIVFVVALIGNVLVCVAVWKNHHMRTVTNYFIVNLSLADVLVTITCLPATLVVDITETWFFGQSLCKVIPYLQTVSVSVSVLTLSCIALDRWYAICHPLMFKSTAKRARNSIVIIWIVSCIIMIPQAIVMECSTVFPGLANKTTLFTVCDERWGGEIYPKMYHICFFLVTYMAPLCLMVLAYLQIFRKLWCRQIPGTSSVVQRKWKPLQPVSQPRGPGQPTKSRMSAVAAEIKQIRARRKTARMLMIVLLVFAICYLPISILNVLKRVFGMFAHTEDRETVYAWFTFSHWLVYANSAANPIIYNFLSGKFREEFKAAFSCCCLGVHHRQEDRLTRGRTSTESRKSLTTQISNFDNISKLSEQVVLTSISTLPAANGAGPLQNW

[1] = target: T2, Orexin/Hypocretin receptor type 1 (Homo sapiens, UniProt O43613); test: Effective agonist concentration to human orexin receptor type 1 determined using the Xlfit program; format: functional
T2 sequence (O43613 whole entry): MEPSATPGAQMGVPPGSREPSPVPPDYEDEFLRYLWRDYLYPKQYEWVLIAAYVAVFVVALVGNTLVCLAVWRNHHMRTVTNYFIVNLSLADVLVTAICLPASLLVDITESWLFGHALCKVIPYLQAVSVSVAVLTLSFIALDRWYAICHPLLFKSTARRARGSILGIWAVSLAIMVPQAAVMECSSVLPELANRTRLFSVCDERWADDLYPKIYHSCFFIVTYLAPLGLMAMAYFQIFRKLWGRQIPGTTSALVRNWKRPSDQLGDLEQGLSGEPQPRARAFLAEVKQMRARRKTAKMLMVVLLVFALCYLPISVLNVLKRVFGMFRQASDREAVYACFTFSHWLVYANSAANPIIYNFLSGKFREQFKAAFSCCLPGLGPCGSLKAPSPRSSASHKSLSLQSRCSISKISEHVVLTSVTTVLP

| Compound | EC50 (Orexin receptor type 2) | EC50 [1] |
| --- | --- | --- |
| CC[C@H](C)[C@H](NC(=O)CNC(=O)[C@H](C)NC(=O)[C@H](C)NC(=O)[C@H](Cc1c[nH]cn1)NC(=O)[C@H](CC(N)=O)NC(=O)CNC(=O)[C@H](C)NC(=O)CNC(=O)[C@H](Cc1c[nH]cn1)NC(=O)[C@H](CC(C)C)NC(=O)[C@@H](N)CC(C)C)C(=O)N[C@@H](CC(C)C)C(=O)N[C@H](C(=O)N[C@@H](CC(C)C)C(=O)O)[C@@H](C)O (H-LLHGAGNHAAGILTL-OH) | > 1000 µM |  |
| CC[C@H](C)[C@H](NC(=O)CNC(=O)[C@H](C)NC(=O)[C@H](C)NC(=O)[C@H](Cc1cnc[nH]1)NC(=O)[C@H](CC(N)=O)NC(=O)CNC(=O)[C@H](CO)NC(=O)[C@H](C)NC(=O)[C@H](CCC(N)=O)NC(=O)[C@H](CC(C)C)NC(=O)[C@H](CC(C)C)NC(=O)[C@H](CCCNC(=N)N)NC(=O)[C@H](CCC(N)=O)NC(=O)[C@H](CC(C)C)NC(=O)[C@H](CCCNC(=N)N)NC(=O)CNC(=O)[C@H](C)NC(=O)[C@H](CC(C)C)NC(=O)CN)C(=O)N[C@@H](CC(C)C)C(=O)N[C@H](C(=O)N[C@@H](CCSC)C(=O)O)[C@@H](C)O (H-GLAGRLQRLLQASGNHAAGILTM-OH) | 0.24 µM |  |
| CC[C@H](C)[C@H](NC(=O)CNC(=O)[C@H](C)NC(=O)[C@H](C)NC(=O)[C@H](Cc1cnc[nH]1)NC(=O)[C@H](CC(N)=O)NC(=O)CNC(=O)[C@H](CO)NC(=O)[C@H](C)NC(=O)[C@H](CCC(N)=O)NC(=O)[C@H](CC(C)C)NC(=O)[C@H](CC(C)C)NC(=O)[C@@H]1CCCN1C(=O)[C@H](CCC(N)=O)NC(=O)[C@H](CC(C)C)NC(=O)[C@H](CCCNC(=N)N)NC(=O)CNC(=O)[C@H](CCC(N)=O)NC(=O)[C@H](CC(C)C)NC(=O)CN)C(=O)N[C@@H](CC(C)C)C(=O)N[C@H](C(=O)N[C@@H](CCSC)C(=O)O)[C@@H](C)O (H-GLQGRLQPLLQASGNHAAGILTM-OH) | 0.68 µM |  |
| CC[C@H](C)[C@H](NC(=O)CNC(=O)[C@H](C)NC(=O)[C@H](C)NC(=O)[C@H](Cc1c[nH]cn1)NC(=O)[C@H](CC(N)=O)NC(=O)CNC(=O)[C@H](CO)NC(=O)[C@H](C)NC(=O)[C@H](CCC(N)=O)NC(=O)[C@H](CC(C)C)NC(=O)[C@H](CC(C)C)NC(=O)[C@H](CCCN=C(N)N)NC(=O)[C@@H]1CCCN1C(=O)[C@H](CC(C)C)NC(=O)[C@H](CCCN=C(N)N)NC(=O)CNC(=O)[C@H](CCC(N)=O)NC(=O)[C@H](CC(C)C)NC(=O)CN)C(=O)N[C@@H](CC(C)C)C(=O)N[C@H](C(=O)N[C@@H](CCSC)C(=O)O)[C@@H](C)O (stereo in doubt; form 2) | 0.36 µM |  |
| CC[C@H](C)[C@H](NC(=O)CNC(=O)[C@H](C)NC(=O)[C@H](C)NC(=O)[C@H](Cc1cnc[nH]1)NC(=O)[C@H](CC(N)=O)NC(=O)CNC(=O)[C@H](CO)NC(=O)[C@H](C)NC(=O)[C@H](CCC(N)=O)NC(=O)[C@H](CC(C)C)NC(=O)[C@@H](N)CC(C)C)C(=O)N[C@@H](CC(C)C)C(=O)N[C@H](C(=O)N[C@@H](CCSC)C(=O)O)[C@@H](C)O (H-LLQASGNHAAGILTM-OH) | > 1000 µM |  |

The next lines start with the values.

| EC50 (Orexin receptor type 2) | EC50 [1] | Compound |
| --- | --- | --- |
| 0.64 µM |  | CC[C@H](C)[C@H](NC(=O)CNC(=O)[C@H](C)NC(=O)[C@H](C)NC(=O)[C@H](Cc1cnc[nH]1)NC(=O)[C@H](CC(N)=O)NC(=O)CNC(=O)[C@H](C)NC(=O)CNC(=O)[C@H](Cc1cnc[nH]1)NC(=O)[C@H](CC(C)C)NC(=O)[C@H](CC(C)C)NC(=O)[C@H](CCC(=O)O)NC(=O)[C@H](Cc1ccc(O)cc1)NC(=O)[C@H](CC(C)C)NC(=O)[C@H](CCCNC(=N)N)NCCCCCC(=O)[C@H](CC(=O)O)NC(=O)[C@@H]1CCCN1C(=O)[C@H](CC(C)C)NC(=O)[C@@H]1CCCN1C(=O)[C@@H]1CCC(=O)N1)C(=O)N[C@@H](CC(C)C)C(=O)N[C@H](C(=O)N[C@@H](CC(C)C)C(=O)O)[C@@H](C)O (H-[X2]([Pro-Leu-Pro-pGlu])LYELLHGAGNHAAGILTL-OH) |
| > 1000 µM |  | CC[C@H](C)[C@H](NC(=O)CNC(=O)[C@H](C)NC(=O)[C@H](C)NC(=O)[C@H](Cc1c[nH]cn1)NC(=O)[C@H](CC(N)=O)NC(=O)CN)C(=O)N[C@@H](CC(C)C)C(=O)N[C@H](C(=O)N[C@@H](CC(C)C)C(=O)O)[C@@H](C)O (H-GNHAAGILTL-OH) |
| 3.15 µM |  | CC[C@H](C)[C@H](NC(=O)[C@H](Cc1cnc[nH]1)NC(=O)[C@H](CC(N)=O)NC(=O)CNC(=O)[C@H](CO)NC(=O)[C@H](C)NC(=O)[C@H](CCC(N)=O)NC(=O)[C@H](CC(C)C)NC(=O)[C@H](CC(C)C)NC(=O)[C@H](CCCNC(=N)N)NC(=O)[C@H](CCC(N)=O)NC(=O)[C@H](CC(C)C)NC(=O)[C@H](CCCNC(=N)N)NC(=O)CNC(=O)[C@H](CCC(N)=O)NC(=O)[C@H](CC(C)C)NC(=O)CN)C(=O)N[C@@H](C)C(=O)NCC(=O)N[C@@H](C)C(=O)N[C@@H](CC(C)C)C(=O)N[C@H](C(=O)N[C@@H](CCSC)C(=O)O)[C@@H](C)O |
|  | 0.16 µM | CC[C@H](C)[C@H](NC(=O)CNC(=O)[C@H](C)NC(=O)[C@H](C)NC(=O)[C@H](Cc1cnc[nH]1)NC(=O)[C@H](CC(N)=O)NC(=O)CNC(=O)[C@H](C)NC(=O)CNC(=O)[C@H](Cc1cnc[nH]1)NC(=O)[C@H](CC(C)C)NC(=O)[C@H](CC(C)C)NC(=O)[C@H](CCC(=O)O)NC(=O)[C@H](Cc1ccc(O)cc1)NC(=O)[C@H](CC(C)C)NC(=O)[C@H](CCCNC(=N)N)NC(=O)[C@H](CS)NC(=O)[C@H](CO)NC(=O)[C@H](CS)NC(=O)[C@@H](NC(=O)[C@H](CCCCN)NC(=O)[C@H](CCC(N)=O)NC(=O)[C@H](CCCNC(=N)N)NC(=O)[C@H](CS)NC(=O)[C@H](CS)NC(=O)[C@H](CC(=O)O)NC(=O)[C@@H]1CCCN1C(=O)[C@H](CC(C)C)NC(=O)[C@@H]1CCCN1C(=O)[C@@H]1CCC(=O)N1)[C@@H](C)O)C(=O)N[C@@H](CC(C)C)C(=O)N[C@H](C(=O)N[C@@H](CC(C)C)C(=O)O)[C@@H](C)O |
|  | 11.4 µM | CC[C@H](C)[C@H](NC(=O)CNC(=O)[C@H](C)NC(=O)[C@H](C)NC(=O)[C@H](Cc1c[nH]cn1)NC(=O)[C@H](CC(N)=O)NC(=O)CNC(=O)[C@H](CO)NC(=O)[C@H](C)NC(=O)[C@H](CCC(N)=O)NC(=O)[C@H](CC(C)C)NC(=O)[C@H](CC(C)C)NC(=O)[C@H](CCCNC(=N)N)NC(=O)[C@H](CCC(N)=O)NC(=O)[C@H](C)NC(=O)[C@H](CCCNC(=N)N)NC(=O)CNC(=O)[C@H](CCC(N)=O)NC(=O)[C@H](CC(C)C)NC(=O)CN)C(=O)N[C@@H](CC(C)C)C(=O)N[C@H](C(=O)N[C@@H](CCSC)C(=O)O)[C@@H](C)O (H-GLQGRAQRLLQASGNHAAGILTM-OH) |
|  | 2.21 µM | CC[C@H](C)[C@H](NC(=O)CNC(=O)[C@H](C)NC(=O)[C@H](C)NC(=O)[C@H](Cc1c[nH]cn1)NC(=O)[C@H](CC(N)=O)NC(=O)[C@H](C)NC(=O)[C@H](CO)NC(=O)[C@H](C)NC(=O)[C@H](CCC(N)=O)NC(=O)[C@H](CC(C)C)NC(=O)[C@H](CC(C)C)NC(=O)[C@H](CCCN=C(N)N)NC(=O)[C@H](CCC(N)=O)NC(=O)[C@H](CC(C)C)NC(=O)[C@H](CCCN=C(N)N)NC(=O)CNC(=O)[C@H](CCC(N)=O)NC(=O)[C@H](CC(C)C)NC(=O)CN)C(=O)N[C@@H](CC(C)C)C(=O)N[C@H](C(=O)N[C@@H](CCSC)C(=O)O)[C@@H](C)O (H-GLQGRLQRLLQASANHAAGILTM-OH) |
